Measured values from patent publication US6613747B2, “6-O-carbamoyl ketolide antibacterials” (Ortho-McNeil Pharmaceutical, Inc., priority 2000, dated 2003).
Converted amounts (≈) assume the structure as drawn. Like-named read-outs stand apart in the source and are kept apart here.

Key:
Assay in all cases: MIC, microdilution broth method (NCCLS)
Type in all cases: cell-based
[1] = tested on: S. aureus ATCC29213; settings: B: S. aureus ATCC29213, 35° C., 16-20 hours
Protocol: (§1) Minimal inhibitory concentration (MIC) has been an indicator of in vitro antibacterial activity widely used in the art. The in vitro antimicrobial activity of the compounds was determined by the microdilution broth method following the test method from the National Committee for Clinical Laboratory Standards (NCCLS). This method is described in the NCCLS Document M7-A4, Vol. 17, No. 2, “Methods for Dilution Antimicrobial Susceptibility Test for Bacteria that Grow Aerobically—Fourth Edition”, which is incorporated herein by reference.
(§2) In this method two-fold serial dilutions of drug in cation adjusted Mueller-Hinton broth are added to wells in microdilution trays. The test organisms are prepared by adjusting the turbidity of actively growing broth cultures so that the final concentration of test organism after it is added to the wells is approximately 5×10^4 CFU/well.
(§3) Following inoculation of the microdilution trays, the trays are incubated at 35° C. for 16-20 hours and then read. […] The amount of growth in the wells containing the test compound is compared with the amount of growth in the growth-control wells (no test compound) used in each tray. As set forth in Table 1, compounds of the present invention were tested against a variety of Gram positive and Gram negative pathogenic bacteria resulting in a range of activities depending on the organism tested.

[2] = tested on: H. influenzae ATCC49247; settings: E: H. influenzae ATCC49247, 35° C., 16-20 hours
Protocol: as §1, §2, §3

[3] = tested on: E. faecalis ATCC29212; settings: C: E. faecalis ATCC29212, 35° C., 16-20 hours
Protocol: as §1, §2, §3

[4] = tested on: S. pneumoniae ATCC49619; settings: D: S. pneumoniae ATCC49619, 35° C., 16-20 hours
Protocol: as §1, §2, §3

[5] = tested on: E. coli OC2605; settings: A: E. coli OC2605, 35° C., 16-20 hours
Protocol: as §1, §2, §3

[6] = Staphylococcus aureus, read-out: MIC
[7] = Enterococcus faecalis, read-out: MIC
[8] = Escherichia coli, read-out: MIC

Row | Structure (SMILES) | MIC [1] [µg/mL] | MIC [2] [µg/mL] | MIC [3] [µg/mL] | MIC [4] | MIC [5] [µg/mL] | MIC [1, 6] [µg/mL] | MIC ([2]; Haemophilus influenzae, read-out: MIC) [µg/mL] | MIC [3, 7] [µg/mL] | MIC [5, 8] [µg/mL] | MIC ([4]; Streptococcus pneumoniae, read-out: MIC) [µg/mL]
1 | CC[C@H]1OC(=O)[C@H](C)C(=O)[C@H](C)[C@@H](O[C@@H]2O[C@H](C)C[C@H](N(C)C)[C@H]2O)[C@](C)(OC(=O)NCc2ccc(-c3ccncn3)cc2)C[C@@H](C)C(=O)[C@H](C)[C@H]2NC(=O)O[C@@]21C [Compound 79] | 0.25 (≈ 0.309 µM) | 2 (≈ 2.47 µM) | 0.06 (≈ 0.0741 µM) | 0.03 µg/mL (≈ 0.037 µM) | 8 (≈ 9.88 µM) |  |  |  |  | 
2 | CC[C@H]1OC(=O)[C@H](C)C(=O)[C@H](C)[C@@H](O[C@@H]2O[C@H](C)C[C@H](N(C)C)[C@H]2O)[C@](C)(OC(=O)NC/C=C/c2cccc(-c3ccccn3)c2)C[C@@H](C)C(=O)[C@H](C)[C@H]2NC(=O)O[C@@]21C [Compound 36] | 0.12 (≈ 0.144 µM) |  | 0.03 (≈ 0.0359 µM) | ≦0.015 μg/mL | 8 (≈ 9.58 µM) |  |  |  |  | 
3 | CCC1OC(=O)C(C)(F)C(=O)C(C)C(OC2OC(C)CC(N(C)C)C2O)C(C)(OC(=O)NCC=Cc2ccc(-c3cccnn3)cc2)CC(C)C(=O)C(C)C2NC(=O)OC12C (stereo not shown) [Compound 99] | 0.5 (≈ 0.585 µM) | 1 (≈ 1.17 µM) | 0.12 (≈ 0.141 µM) |  | 8 (≈ 9.37 µM) |  |  |  |  | 
4 | CC[C@H]1OC(=O)[C@H](C)C(=O)[C@H](C)[C@@H](O[C@@H]2O[C@H](C)C[C@H](N(C)C)[C@H]2O)[C@](C)(OC(N)=O)C[C@@H](C)C(=O)[C@H](C)[C@H]2NC(=O)O[C@@]21C [Compound 6] | 4 (≈ 6.23 µM) |  | 1 (≈ 1.56 µM) | 0.12 µg/mL (≈ 0.187 µM) | >16 |  |  |  |  | 
5 | CC[C@H]1OC(=O)[C@H](C)C(=O)[C@H](C)[C@@H](O[C@@H]2O[C@H](C)C[C@H](N(C)C)[C@H]2O)[C@](C)(OC(=O)NCc2cccc(-c3ccccn3)c2)C[C@@H](C)C(=O)[C@H](C)[C@H]2NC(=O)O[C@@]21C [Compound 37] | 0.5 (≈ 0.618 µM) |  | 0.12 (≈ 0.148 µM) | 0.03 µg/mL (≈ 0.0371 µM) | 16 (≈ 19.8 µM) |  |  |  |  | 
6 | CC[C@H]1OC(=O)[C@H](C)C(=O)[C@H](C)[C@@H](O[C@@H]2O[C@H](C)C[C@H](N(C)C)[C@H]2O)[C@](C)(OC(=O)NCc2ccccc2)C[C@@H](C)C(=O)[C@H](C)[C@H]2NC(=O)O[C@@]21C [Compound 1] | 4 (≈ 5.47 µM) |  | 0.12 (≈ 0.164 µM) | 0.03 µg/mL (≈ 0.041 µM) | >16 |  |  |  |  | 
7 | CC[C@H]1OC(=O)[C@H](C)C(=O)[C@H](C)[C@@H](O[C@@H]2O[C@H](C)C[C@H](N(C)C)[C@H]2O)[C@](C)(OC(=O)NC/C=C/c2cccc(-n3cccn3)n2)C[C@@H](C)C(=O)[C@H](C)[C@H]2NC(=O)O[C@@]21C [Compound 48] | 0.5 (≈ 0.606 µM) | 4 (≈ 4.85 µM) | 0.12 (≈ 0.145 µM) |  | >16 |  |  |  |  | 
8 | CC[C@H]1OC(=O)[C@H](C)C(=O)[C@H](C)[C@@H](O[C@@H]2O[C@H](C)C[C@H](N(C)C)[C@H]2O)[C@](C)(OC(=O)NC2CC(c3ccc(-c4ncccn4)cc3)C2)C[C@@H](C)C(=O)[C@H](C)[C@H]2NC(=O)O[C@@]21C (stereo partly shown) [Compound 136] |  | >16 | 4 (≈ 4.71 µM) | 2 µg/mL (≈ 2.35 µM) | >16 |  |  |  |  | 
9 | CC[C@H]1OC(=O)[C@H](C)[C@@H](O)[C@H](C)[C@@H](O[C@@H]2O[C@H](C)C[C@H](N(C)C)[C@H]2O)[C@](C)(OC(=O)NC/C=C/c2ccc(-c3ncccn3)cc2)C[C@@H](C)C(=O)[C@H](C)[C@H]2NC(=O)O[C@@]21C [Compound 95] |  |  |  |  |  | 1 (≈ 1.19 µM) | 2 (≈ 2.39 µM) | 0.25 (≈ 0.298 µM) | > 16 | 
10 | CC[C@H]1OC(=O)[C@H](C)C(=O)[C@H](C)[C@@H](O[C@@H]2O[C@H](C)C[C@H](N(C)C)[C@H]2O)[C@](C)(OC(=O)NCc2ccc(Br)cc2)C[C@@H](C)C(=O)[C@H](C)[C@H]2NC(=O)O[C@@]21C [Compound 5] | 0.5 (≈ 0.617 µM) |  | 0.25 (≈ 0.308 µM) | 0.03 µg/mL (≈ 0.037 µM) | >16 |  |  |  |  | 
11 | CC[C@H]1OC(=O)[C@H](C)C(=O)[C@H](C)[C@@H](O[C@@H]2O[C@H](C)C[C@H](N(C)C)[C@H]2O)[C@](C)(OC(=O)NC/C=C/c2ccc(-n3ccnn3)cc2)C[C@@H](C)C(=O)[C@H](C)[C@H]2NC(=O)O[C@@]21C [Compound 33] | 0.12 (≈ 0.145 µM) |  | 0.06 (≈ 0.0727 µM) | ≦0.015 μg/mL | 8 (≈ 9.7 µM) |  |  |  |  | 

Results, then the molecule that gave them:

Row | MIC [1] [µg/mL] | MIC [2] [µg/mL] | MIC [3] [µg/mL] | MIC [4] | MIC [5] [µg/mL] | MIC [1, 6] [µg/mL] | MIC ([2]; Haemophilus influenzae, read-out: MIC) [µg/mL] | MIC [3, 7] [µg/mL] | MIC [5, 8] [µg/mL] | MIC ([4]; Streptococcus pneumoniae, read-out: MIC) [µg/mL] | Structure (SMILES)
12 | 0.12 (≈ 0.148 µM) |  | 0.03 (≈ 0.0371 µM) | ≦0.015 μg/mL | 8 (≈ 9.89 µM) |  |  |  |  |  | CC[C@H]1OC(=O)[C@H](C)C(=O)[C@H](C)[C@@H](O[C@@H]2O[C@H](C)C[C@H](N(C)C)[C@H]2O)[C@](C)(OC(=O)NC/C=C/c2ccc3ncccc3c2)C[C@@H](C)C(=O)[C@H](C)[C@H]2NC(=O)O[C@@]21C [Compound 38]
13 | 0.5 (≈ 0.585 µM) | 2 (≈ 2.34 µM) | 0.12 (≈ 0.141 µM) |  | 16 (≈ 18.7 µM) |  |  |  |  |  | CCC1OC(=O)C(C)(F)C(=O)C(C)C(OC2OC(C)CC(N(C)C)C2O)C(C)(OC(=O)NCC=Cc2ccc(-c3ccncn3)cc2)CC(C)C(=O)C(C)C2NC(=O)OC12C (stereo not shown) [Compound 100]
14 | 0.25 (≈ 0.309 µM) | 1 (≈ 1.24 µM) | 0.06 (≈ 0.0742 µM) |  | 16 (≈ 19.8 µM) |  |  |  |  |  | CC[C@H]1OC(=O)[C@H](C)C(=O)[C@H](C)[C@@H](O[C@@H]2O[C@H](C)C[C@H](N(C)C)[C@H]2O)[C@](C)(OC(=O)NC/C=C/c2ccc3cccnc3c2)C[C@@H](C)C(=O)[C@H](C)[C@H]2NC(=O)O[C@@]21C [Compound 47]
15 | 0.12 (≈ 0.148 µM) |  | 0.06 (≈ 0.0742 µM) | ≦0.015 μg/mL | 8 (≈ 9.89 µM) |  |  |  |  |  | CC[C@H]1OC(=O)[C@H](C)C(=O)[C@H](C)[C@@H](O[C@@H]2O[C@H](C)C[C@H](N(C)C)[C@H]2O)[C@](C)(OC(=O)NC/C=C/c2ccnc3ccccc23)C[C@@H](C)C(=O)[C@H](C)[C@H]2NC(=O)O[C@@]21C [Compound 34]
16 | 0.25 (≈ 0.309 µM) | 2 (≈ 2.47 µM) | 0.06 (≈ 0.0742 µM) |  | 16 (≈ 19.8 µM) |  |  |  |  |  | CC[C@H]1OC(=O)[C@H](C)C(=O)[C@H](C)[C@@H](O[C@@H]2O[C@H](C)C[C@H](N(C)C)[C@H]2O)[C@](C)(OC(=O)NC/C=C/c2cccc3cccnc23)C[C@@H](C)C(=O)[C@H](C)[C@H]2NC(=O)O[C@@]21C [Compound 46]
17 |  |  |  |  |  | 0.12 (≈ 0.144 µM) |  | 0.06 (≈ 0.0718 µM) | 16 (≈ 19.1 µM) | 0.06 (≈ 0.0718 µM) | CC[C@H]1OC(=O)[C@H](C)C(=O)[C@H](C)[C@@H](O[C@@H]2O[C@H](C)C[C@H](N(C)C)[C@H]2O)[C@](C)(OC(=O)NC/C=C/c2ccc(-c3ncccn3)cc2)C[C@@H](C)C(=O)[C@H](C)[C@H]2NC(=O)O[C@@]21C [Compound 32, Carbamic acid, [(2E)-3-[4-(2-pyrimidinyl)phenyl]-2-propenyl]-, (3aS,4R,7R,9R,10R,11R,13R,15R,15aR)-4-ethyltetradecahydro-3a,7,9,11,13,15-hexamethyl-2,6,8,14-tetraoxo-10-[[3,4,6-trideoxy-3-(dimethylamino)-β-D-xylo-hexopyranosyl]oxy]-2H-oxacyclotetradecino[4,3-d]oxazol-11-yl ester]
18 | 1 (≈ 1.21 µM) |  | 0.5 (≈ 0.606 µM) | 0.12 µg/mL (≈ 0.145 µM) | 16 (≈ 19.4 µM) |  |  |  |  |  | CC[C@H]1OC(=O)[C@H](C)C(=O)[C@H](C)[C@@H](O[C@@H]2O[C@H](C)C[C@H](N(C)C)[C@H]2O)[C@](C)(OC(=O)NC/C=C/c2ccc(-n3cnnc3)cc2)C[C@@H](C)C(=O)[C@H](C)[C@H]2NC(=O)O[C@@]21C [Compound 40]
